# Patent US6358885B1, “Substituted phenylheterocyclic herbicides” (Mississippi State University, priority 1992, dated 2002)
# Tests used:
# [1] = system: barnyardgrass; assay: Test B preemergence/postemergence greenhouse plant response rating 0 to 10; assay type: in vivo, Echinochloa crus-galli; conditions: for Plant response rating, Barnyardgrass: 0 to 10 scale
# In short: (§1)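 Test chemicals, dissolved in a non-phytotoxic solvent, were applied to soil at planting and, at the same time, over foliage of seedlings at the one to four leaf stage.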
# [2] = system: cotton; assay: as above; assay type: in vivo, Gossypium hirsutum; conditions: for Plant response rating, Cotton: 0 to 10 scale
# In short: as §1
# [3] = system: morningglory; assay: as above; assay type: in vivo, Ipomoea hederacea; conditions: 0 to 10 scale
# In short: as §1
# [4] = system: velvetleaf; assay: as above; assay type: in vivo, Abutilon theophrasti; conditions: 0 to 10 scale
# In short: as §1
# [5] = system: wheat; assay: as above; assay type: in vivo, Triticum aestivum; conditions: 0 to 10 scale
# In short: as §1
# [6] = system: bedstraw; assay: Test C preemergence/postemergence greenhouse plant response rating 0 to 100; assay type: in vivo, Galium aparine; conditions: for Plant response rating, Bedstraw: 0 to 100 scale
# In short: (§2)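 Compounds in non-phytotoxic solvent applied preemergence to sandy loam one day after planting, postemergence at the 1–4 leaf stage, or to ~2.5 cm floodwater over silt loam.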
# [7] = system: blackgrass; assay: as above; assay type: in vivo, Alopecurus myosuroides; conditions: for Plant response rating, Blackgrass: 0 to 100 scale
# In short: as §2
# [8] = system: crabgrass; assay: as above; assay type: in vivo, Digitaria sanguinalis; conditions: for Plant response rating, Crabgrass: 0 to 100 scale
# In short: as §2
# [9] = system: giant foxtail; assay: as above; assay type: in vivo, Setaria faberii; conditions: for Plant response rating, Giant foxtail: 0 to 100 scale
# In short: as §2
# [10] = system: rape; assay: as above; assay type: in vivo, Brassica napus; conditions: for Plant response rating, Rape: 0 to 100 scale
# In short: as §2
# [11] = system: speedwell; assay: as above; assay type: in vivo, Veronica persica; conditions: for Plant response rating Speedwell: 0 to 100 scale
# From the text: The compounds evaluated in this test were formulated in a non-phytoxic solvent and applied to the soil surface before plant seedlings emerged (preemergence application), to water that covered the soil surface (flood application), and to plants that were in the one-to-four leaf stage (postemergence application). A sandy loam soil was used for the preemergence and postemergence tests, while a silt loam soil was used in the flood test. Water depth was approximately 2.5 cm for the flood test and was maintained at this level for the duration of the test. Plant species in the preemergence and postemergence tests consisted of barley (Hordeum vulgare), bedstraw (Galium aparine), blackgrass (Alopecurus myosuroides), chickweed (Stellaria media), corn (Zea mays), cotton (Gossypium hirsutum), crabgrass (Digitaria sanguinalis), downy brome (Bromus tectorum), giant foxtail (Setaria faberii), lambsquarters (Chenopodium album), morningglory (Ipomoea hederacea), pigweed ([…]), rape (Brassica napus), ryegrass (Lolium multiflorum), sorghum (Sorghum bicolor), soybean (Glycine max), speedwell (Veronica persica), sugar beet (Beta vulgaris), velvetleaf (Abutilon theophrasti), wheat (Triticum aestivum), wild buckwheat (Polygonum convolvulus), and wild oat (Avena fatua). All plant species were planted one day before application of the compound for the preemergence portion-of this test. Plantings of these species were adjusted to produce plants of appropriate size for the post-emergence portion of the test. […] All plant species were grown using normal greenhouse practices. Visual evaluations of injury expressed on treated plants, when compared to untreated controls, were recorded approximately fourteen to twenty one days after application of the test compound. […] A dash (-) response means no test result.
# [12] = system: wheat; assay: as above; assay type: in vivo, Triticum aestivum; conditions: for Plant response rating, Wheat: 0 to 100 scale
# In short: as §2
# [13] = system: wild oat; assay: as above; assay type: in vivo, Avena fatua; conditions: for Plant response rating, Wild oat: 0 to 100 scale
# In short: as §2
compound,measurement,setting,value
C#CCOc1cc(-c2nn3c(c2Br)CCCC3)c(F)cc1Cl [Compound 26],"Plant response rating (0 to 10 scale), Barnyardgrass","[1]; POSTEMERGENCE, Rate 50 g/ha",5
same,"Plant response rating, Barnyardgrass","[1]; POSTEMERGENCE, Rate 200 g/ha",7
same,"Plant response rating, Barnyardgrass","[1]; PREEMERGENCE, Rate 50 g/ha",2
same,"Plant response rating, Barnyardgrass","[1]; Rate 200 g/ha, PREEMERGENCE",7
same,"Plant response rating (0 to 10 scale), Cotton","[2]; POSTEMERGENCE, Rate 50 g/ha",10
same,"Plant response rating, Cotton","[2]; POSTEMERGENCE, Rate 200 g/ha",10
same,"Plant response rating, Cotton","[2]; PREEMERGENCE, Rate 50 g/ha",3
same,"Plant response rating, Cotton","[2]; Rate 200 g/ha, PREEMERGENCE",9
same,"Plant response rating, Morningglory","[3]; POSTEMERGENCE, Rate 50 g/ha",9
same,"Plant response rating, Morningglory","[3]; POSTEMERGENCE, Rate 200 g/ha",9
same,"Plant response rating, Morningglory","[3]; PREEMERGENCE, Rate 50 g/ha",2
same,"Plant response rating, Morningglory","[3]; Rate 200 g/ha, PREEMERGENCE",9
same,"Plant response rating, Velvetleaf","[4]; POSTEMERGENCE, Rate 50 g/ha",10
same,"Plant response rating, Velvetleaf","[4]; POSTEMERGENCE, Rate 200 g/ha",10
same,"Plant response rating, Velvetleaf","[4]; PREEMERGENCE, Rate 50 g/ha",10
same,"Plant response rating, Velvetleaf","[4]; Rate 200 g/ha, PREEMERGENCE",10
same,"Plant response rating, Wheat","[5]; POSTEMERGENCE, Rate 50 g/ha",4
same,"Plant response rating, Wheat","[5]; POSTEMERGENCE, Rate 200 g/ha",5
same,"Plant response rating, Wheat","[5]; PREEMERGENCE, Rate 50 g/ha",1
same,"Plant response rating, Wheat","[5]; Rate 200 g/ha, PREEMERGENCE",2
same,"Plant response rating, Bedstraw","[6]; POSTEMERGENCE, 62 g/ha",100
same,"Plant response rating, Bedstraw","[6]; POSTEMERGENCE, 250 g/ha",100
same,"Plant response rating, Bedstraw","[6]; PREEMERGENCE, 62 g/ha",100
same,"Plant response rating, Bedstraw","[6]; PREEMERGENCE, 250 g/ha",100
same,"Plant response rating (0 to 100), Bedstraw","[6]; PREEMERGENCE, Rate 4 g/ha",20
same,"Plant response rating (0 to 100), Bedstraw","[6]; Rate 4 g/ha, POSTEMERGENCE",70
same,"Plant response rating (0 to 100), Bedstraw","[6]; Rate 16 g/ha, POSTEMERGENCE",80
same,"Plant response rating (0 to 100), Bedstraw","[6]; Rate 16 g/ha, PREEMERGENCE",60
same,"Plant response rating, Blackgrass","[7]; POSTEMERGENCE, 62 g/ha",40
same,"Plant response rating, Blackgrass","[7]; POSTEMERGENCE, 250 g/ha",70
same,"Plant response rating, Blackgrass","[7]; PREEMERGENCE, 62 g/ha",20
same,"Plant response rating, Blackgrass","[7]; PREEMERGENCE, 250 g/ha",40
same,"Plant response rating (0 to 100), Blackgrass","[7]; PREEMERGENCE, Rate 4 g/ha",0
same,"Plant response rating (0 to 100), Blackgrass","[7]; Rate 4 g/ha, POSTEMERGENCE",30
same,"Plant response rating (0 to 100), Blackgrass","[7]; Rate 16 g/ha, POSTEMERGENCE",40
same,"Plant response rating (0 to 100), Blackgrass","[7]; Rate 16 g/ha, PREEMERGENCE",0
same,"Plant response rating, Crabgrass","[8]; POSTEMERGENCE, 62 g/ha",20
same,"Plant response rating, Crabgrass","[8]; POSTEMERGENCE, 250 g/ha",40
same,"Plant response rating (0 to 100), Crabgrass","[8]; POSTEMERGENCE, Rate 4 g/ha",0
same,"Plant response rating, Crabgrass","[8]; PREEMERGENCE, 62 g/ha",20
same,"Plant response rating, Crabgrass","[8]; PREEMERGENCE, 250 g/ha",60
same,"Plant response rating (0 to 100), Crabgrass","[8]; PREEMERGENCE, Rate 4 g/ha",0
same,"Plant response rating (0 to 100), Crabgrass","[8]; Rate 16 g/ha, POSTEMERGENCE",0
same,"Plant response rating (0 to 100), Crabgrass","[8]; Rate 16 g/ha, PREEMERGENCE",0
same,"Plant response rating, Giant foxtail","[9]; POSTEMERGENCE, 62 g/ha",50
same,"Plant response rating, Giant foxtail","[9]; POSTEMERGENCE, 250 g/ha",70
same,"Plant response rating (0 to 100), Giant foxtail","[9]; POSTEMERGENCE, Rate 4 g/ha",0
same,"Plant response rating, Giant foxtail","[9]; PREEMERGENCE, 62 g/ha",70
same,"Plant response rating, Giant foxtail","[9]; PREEMERGENCE, 250 g/ha",100
same,"Plant response rating (0 to 100), Giant foxtail","[9]; PREEMERGENCE, Rate 4 g/ha",0
same,"Plant response rating (0 to 100), Giant foxtail","[9]; Rate 16 g/ha, POSTEMERGENCE",40
same,"Plant response rating (0 to 100), Giant foxtail","[9]; Rate 16 g/ha, PREEMERGENCE",30
same,"Plant response rating, Rape","[10]; POSTEMERGENCE, 62 g/ha",100
same,"Plant response rating, Rape","[10]; POSTEMERGENCE, 250 g/ha",100
same,"Plant response rating (0 to 100), Rape","[10]; POSTEMERGENCE, Rate 4 g/ha",80
same,"Plant response rating, Rape","[10]; PREEMERGENCE, 62 g/ha",20
same,"Plant response rating, Rape","[10]; PREEMERGENCE, 250 g/ha",30
same,"Plant response rating (0 to 100), Rape","[10]; PREEMERGENCE, Rate 4 g/ha",0
same,"Plant response rating (0 to 100), Rape","[10]; Rate 16 g/ha, POSTEMERGENCE",90
same,"Plant response rating (0 to 100), Rape","[10]; Rate 16 g/ha, PREEMERGENCE",0
same,Plant response rating Speedwell,"[11]; POSTEMERGENCE, 62 g/ha",100
same,Plant response rating Speedwell,"[11]; POSTEMERGENCE, 250 g/ha",100
same,"Plant response rating (0 to 100), Speedwell","[11]; POSTEMERGENCE, Rate 4 g/ha",90
same,Plant response rating Speedwell,"[11]; PREEMERGENCE, 250 g/ha",100
same,"Plant response rating (0 to 100), Speedwell","[11]; PREEMERGENCE, Rate 4 g/ha",90
same,"Plant response rating (0 to 100), Speedwell","[11]; Rate 16 g/ha, POSTEMERGENCE",100
same,"Plant response rating (0 to 100), Speedwell","[11]; Rate 16 g/ha, PREEMERGENCE",100
same,"Plant response rating, Wheat","[12]; POSTEMERGENCE, 62 g/ha",40
same,"Plant response rating, Wheat","[12]; POSTEMERGENCE, 250 g/ha",60
same,"Plant response rating (0 to 100), Wheat","[12]; POSTEMERGENCE, Rate 4 g/ha",20
same,"Plant response rating, Wheat","[12]; PREEMERGENCE, 250 g/ha",10
same,"Plant response rating (0 to 100), Wheat","[12]; PREEMERGENCE, Rate 4 g/ha",0
same,"Plant response rating (0 to 100), Wheat","[12]; Rate 16 g/ha, POSTEMERGENCE",20
same,"Plant response rating (0 to 100), Wheat","[12]; Rate 16 g/ha, PREEMERGENCE",0
same,"Plant response rating, Wild oat","[13]; POSTEMERGENCE, 62 g/ha",30
same,"Plant response rating, Wild oat","[13]; POSTEMERGENCE, 250 g/ha",50
same,"Plant response rating (0 to 100), Wild oat","[13]; POSTEMERGENCE, Rate 4 g/ha",20
same,"Plant response rating, Wild oat","[13]; PREEMERGENCE, 250 g/ha",30
same,"Plant response rating (0 to 100), Wild oat","[13]; PREEMERGENCE, Rate 4 g/ha",0
same,"Plant response rating (0 to 100), Wild oat","[13]; Rate 16 g/ha, POSTEMERGENCE",30
same,"Plant response rating (0 to 100), Wild oat","[13]; Rate 16 g/ha, PREEMERGENCE",0
